Measured values published in PMC11477141, “Chemokine Receptor N-Terminus Charge Dictates Reliance on Post-Translational Modifications for Effective Ligand Capture and Following Boosting by Defense Peptides” (International Journal of Molecular Sciences, 2024).
Where no end group is shown, it is not given here.

Assays:
CCR1 = molecular target: T1, CCR1 (Homo sapiens, UniProt P32246); experiment: BRET CAMYEL cAMP sensor assay of ligand-induced Gαi signaling via CCR1; format: cell-based; conditions: n = 3
T1 construct: expressed in transfected cells; host or cells: CHO-K1, CHO-pgsB618 (GAG-minus), HEK293 WT / DeltaSia / sC
T1 sequence (P32246 1-355): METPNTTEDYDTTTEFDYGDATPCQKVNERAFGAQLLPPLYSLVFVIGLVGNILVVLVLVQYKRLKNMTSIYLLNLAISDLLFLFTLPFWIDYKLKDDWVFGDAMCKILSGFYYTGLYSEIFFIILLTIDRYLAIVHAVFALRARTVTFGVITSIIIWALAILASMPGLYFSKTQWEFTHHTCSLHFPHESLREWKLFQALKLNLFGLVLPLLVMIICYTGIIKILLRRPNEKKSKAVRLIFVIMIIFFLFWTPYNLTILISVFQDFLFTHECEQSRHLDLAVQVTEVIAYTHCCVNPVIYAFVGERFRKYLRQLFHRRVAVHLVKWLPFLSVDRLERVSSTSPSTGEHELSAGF
Procedure: For quantification of signaling initiated immediate downstream of receptor activation, we used the cAMP binding CAMYEL sensor to perform bioluminescence resonance energy transfer (BRET)-based assays. Shortly, in this assay increased receptor activation leads to an increase in BRET ratio. For detailed information see the Materials and Methods section.
In signaling assays testing the boosting ability of basic peptides, transfected cells were aliquoted into 96-well plates in the presence of 10 µM peptide or PBS vehicle. After R-Luc substrate addition, chemokines were added to reach final concentrations ranging from 0–100 nM (0, 0.1, 1, 10, and 100 nM) and forskolin was applied before reading emission at 475 and 525 nm.
BRET measurements of Gαi signaling and β-arrestin recruitment: Cells were seeded in 6-well plates (500,000 cells/well) and transiently transfected the following day. For BRET measurements of Gαi signaling, cells were transfected with vectors encoding the human chemokine receptors as indicated (160 ng/well) and the CAMYEL sensor (cAMP sensor, YFP-Epac-RLuc) (840 ng/well) using Lipofectamine (6 µL/well). Briefly, DNA was dissolved in 125 µL OPTI-MEM and Lipofectamine was dissolved in 125 µL OPTI-MEM. The DNA and Lipofectamine solutions were combined into a transfection mixture. The transfection mixture was added dropwise to cells incubated in OPTI-MEM (1 mL/well). Transfections were terminated after 5 h by adding 1 mL of fresh culture medium on top of the OPTI-MEM. The following day the cells were loosened from the plates in PBS with 5 mM glucose and subsequently aliquoted in white 96-well iso plates (~25,000 cells/well). When using C21TP variants and defense peptides (hBD2 and histatin), these were added to a final concentration of 10 μM/well, while an equal amount of PBS was added to control cells. The bioluminescence substrate coelenterazine was added to a final conc. of 5 µM. After 10 min, varying ligand concentrations were added. For BRET measurements of Gαi signaling, forskolin was added 5 min after the addition of the ligand, to a final conc. of 5 µM. The plates were kept in the dark at all times. A Perkin Elmer Envision machine was used for measuring the emission signals at 530 and 480 nm. The BRET signal is determined as the ratio eYFP (530 nm)/Rluc (480 nm).
BRET principle with CAMYEL: For quantification of signaling initiated immediately downstream of receptor activation, we used the cAMP binding CAMYEL sensor to perform bioluminescence resonance energy transfer (BRET) based assays. In this assay we measure changes in intracellular cAMP levels in response to receptor activation. Activation of chemokine receptors lead to a decrease in cAMP through inhibition of adenylate cyclase (AC). In the current setup we initially add forskolin that stimulates AC directly to induce an increase in intracellular cAMP, and we then measure the ability of a ligand (chemokine) to counteract the forskolin-induced increase in cAMP. The cAMP sensor (CAMYEL cAMP sensor, YFP-Epac-RLuc) carries the donor Renilla luciferase (Rluc) and the acceptor YFP. Coelenterazine is a substrate for Rluc that will emit light at around 475 nm upon enzymatic cleavage catalyzed by Rluc. When Rluc and YFP are in close proximity, the energy from the emitted light from coelenterazine can be transferred to YFP, resulting in an excitation of YFP, leading to a BRET signal around 525 nm. EPAC is a cAMP binding protein that changes conformation upon cAMP binding. During low cAMP concentrations, Rluc and YFP are near each other, and a strong BRET signal at 525 nm is obtained. When cAMP levels increase, cAMP will bind to EPAC, creating a conformational change, separating Rluc and YFP, reducing the BRET ratio, and increasing the emission from Rluc at 475 nm. Thus, by measuring the ratio between the cAMP-bound (475 nm) and the cAMP-free (525 nm) state of CAMYEL we obtain a measure of receptor activation. […]

Y10Y14Y15AAA-CCR5 = experiment: BRET CAMYEL Gαi signaling via Y10Y14Y15AAA-CCR5; format: cell-based, human; conditions: CHO cells, n = 3
Procedure: BRET measurements of Gαi signaling and β-arrestin recruitment: Cells were seeded in 6-well plates (500,000 cells/well) and transiently transfected the following day. For BRET measurements of Gαi signaling, cells were transfected with vectors encoding the human chemokine receptors as indicated (160 ng/well) and the CAMYEL sensor (cAMP sensor, YFP-Epac-RLuc) (840 ng/well) using Lipofectamine (6 µL/well). Briefly, DNA was dissolved in 125 µL OPTI-MEM and Lipofectamine was dissolved in 125 µL OPTI-MEM. The DNA and Lipofectamine solutions were combined into a transfection mixture. The transfection mixture was added dropwise to cells incubated in OPTI-MEM (1 mL/well). Transfections were terminated after 5 h by adding 1 mL of fresh culture medium on top of the OPTI-MEM. The following day the cells were loosened from the plates in PBS with 5 mM glucose and subsequently aliquoted in white 96-well iso plates (~25,000 cells/well). […] The BRET signal is determined as the ratio eYFP (530 nm)/Rluc (480 nm).
BRET principle with CAMYEL: For quantification of signaling initiated immediately downstream of receptor activation, we used the cAMP binding CAMYEL sensor to perform bioluminescence resonance energy transfer (BRET) based assays. […] The BRET ratio is determined as the ratio between YFP/Rluc, and an increase in BRET ratio indicates a decrease in cAMP and thus increased chemokine receptor activation. […]

[1] = CHO-K1 cells, 10 µM peptide, chemokine 0-100 nM
[2] = HEK293 WT, DeltaSia and sC cells, 10 µM peptide

Substance | boosting of CCL5 signaling via CCR1 in GAG-plus and GAG-minus cells (CCR1; CHO GAG-plus and CHO GAG-minus (CHO-pgsB618) cells, 10 µM peptide) | boosting of CCL5-induced Gαi signaling via CCR1 (CCR1; [1]) | boosting of CCL7-induced Gαi signaling via CCR1 (CCR1; [1]) | effect on CCL3-induced Gαi signaling via CCR1 (CCR1; [1]) | boosting of signaling by CCL5, E26A and E66A via CCR1 (CCR1; HEK293 DeltaSia cells, 10 µM peptide) | boosting of signaling by CCL5, E26A and E66A via CCR1 (CCR1; HEK293 WT cells, 10 µM peptide) | boosting of CCL3 signaling via CCR1 (CCR1; [2]) | boosting of CCL5 signaling via CCR1 (CCR1; [2]) | boosting of CCL7 signaling via CCR1 (CCR1; [2]) | boosting of signaling by CCL5, E26A and E66A via CCR1 (CCR1; HEK293 sC cells, 10 µM peptide) | boosting of CCL5 signaling via Y10Y14Y15AAA receptor variant (Y10Y14Y15AAA-CCR5; 10 µM peptide) | LogEC50 of CCL5-induced Gαi signaling via CCR1 (CCR1; CHO GAG-minus cells (CHO-pgsB618)) | LogEC50 of CCL5-induced Gαi signaling via CCR1 (CCR1; CHO GAG-plus (WT CHO-K1) cells) | Gαi signaling via CCR1 in DeltaSia and sC cells (CCR1; HEK293 DeltaSia and sC, CCL5 oligomerization variants experiment) | Gαi signaling via CCR1 in DeltaSia and sC cells compared to WT cells (CCR1; HEK293 DeltaSia and sC) | Gαi signaling via Y10Y14Y15AAA-CCR5 compared to WT-CCR5 (Y10Y14Y15AAA-CCR5)
RKDRGASKTGKKGKGSKGCKRTERSQTPKGP [C21TP^81-111] | boosted | boosted | boosted | not affected | tendency for boosting | boosting occurs with all three versions of CCL5 | not boosted | preserved across all three cell lines | persists | significant boosting | no longer possible | – | – | – | – | –
CCL5: human chemokine from Peprotech, overall basic | – | – | – | – | – | – | – | – | – | – | – | −9.42 ± 0.131 | −8.89 ± 0.133 | remains high | persists in DeltaSia and sC to almost the same high level as observed in WT cells | completely abolished
